From US20240270821A1, “GIP/GLP1/GCG TRI-RECEPTOR AGONISTS AND USES THEREOF” (priority 2023, published 2024)
Starred links: 1 amine or outer side, 2 acyl side, 3 side chain; linkers in the order of their positions; H or OH if unused. Non-standard residues stand in square brackets, D forms with d. Groups on a side chain read outwards from the residue. *: point of attachment. C18 diacid = O=C(O)CCCCCCCCCCCCCCCCC(=O)*; γGlu = O=C(O)[C@H](CCC(=O)[*:2])N[*:1]; αMe4Pal = C[C@](N)(Cc1ccncc1)C(=O)O; 4Pal = N[C@@H](Cc1ccncc1)C(=O)O; αMeL = CC(C)C[C@](C)(N)C(=O)O; Orn = NCCC[C@H](N)C(=O)O; AEEA = NCCOCCOCC(=O)O; Aib = CC(C)(N)C(=O)O

Key:
hGLP-1R [1] = biological target: T1, hGLP-1R (Homo sapiens, UniProt P43220); test: Functional cAMP activity in the presence of 1% HSA; type: cell-based; conditions: read-out: cAMP Rel EC50, hGLP-1R
T1 sequence (P43220 24-463): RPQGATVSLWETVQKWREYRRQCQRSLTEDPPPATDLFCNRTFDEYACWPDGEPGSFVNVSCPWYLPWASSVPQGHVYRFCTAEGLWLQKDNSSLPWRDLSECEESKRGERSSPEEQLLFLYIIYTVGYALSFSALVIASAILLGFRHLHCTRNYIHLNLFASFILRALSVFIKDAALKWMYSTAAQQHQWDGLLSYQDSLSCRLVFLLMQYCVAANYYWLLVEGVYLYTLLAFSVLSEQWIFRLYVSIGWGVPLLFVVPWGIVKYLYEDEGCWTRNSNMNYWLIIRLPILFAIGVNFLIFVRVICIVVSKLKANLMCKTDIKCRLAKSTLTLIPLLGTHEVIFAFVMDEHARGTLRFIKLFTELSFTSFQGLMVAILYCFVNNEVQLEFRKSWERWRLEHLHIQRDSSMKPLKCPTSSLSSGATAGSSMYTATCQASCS

hGIPR [2] = biological target: T2, hGIPR (Homo sapiens, UniProt P48546); test: Functional cAMP activation in the presence of 0.1% casein (no HSA); type: cell-based; conditions: in the presence of 0.1% casein (no HSA); geometric mean; read-out: Relative cAMP EC50, hGIPR;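 note: intracellular cAMP rise after 30 min at 37 °C read by HTRF against a standard curve, scaled between buffer alone (0%) and top control ligand concentration (100%), four-parameter fit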
T2 sequence (P48546 22-466): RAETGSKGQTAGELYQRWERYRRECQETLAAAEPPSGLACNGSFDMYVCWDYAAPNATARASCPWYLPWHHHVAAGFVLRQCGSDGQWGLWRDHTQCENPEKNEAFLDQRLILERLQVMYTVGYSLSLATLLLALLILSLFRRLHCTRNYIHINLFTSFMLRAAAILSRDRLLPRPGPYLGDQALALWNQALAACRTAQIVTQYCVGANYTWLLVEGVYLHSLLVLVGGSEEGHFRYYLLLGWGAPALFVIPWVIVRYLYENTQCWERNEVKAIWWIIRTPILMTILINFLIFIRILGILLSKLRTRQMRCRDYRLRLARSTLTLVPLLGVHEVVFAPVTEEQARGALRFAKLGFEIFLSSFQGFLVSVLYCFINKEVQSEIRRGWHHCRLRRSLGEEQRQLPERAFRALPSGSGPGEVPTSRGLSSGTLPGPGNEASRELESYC

hGLP-1R [3] = biological target: T1, hGLP-1R; test: as above; type: cell-based; conditions: in the presence of 0.1% casein (no HSA); geometric mean; read-out: Relative cAMP EC50, hGLP-1R
hGIPR [4] = biological target: T2, hGIPR; test: Functional cAMP activity in the presence of 1% HSA; type: cell-based; conditions: read-out: cAMP Rel EC50, hGIPR
[5] = test system: Intestinal organoid from Göttingen minipig jejunum tissue, 2D monolayer; test: Cell based in vitro permeability (Papp) assay; type: in vitro ADME
Description: Intestinal organoid from Göttingen minipig jejunum tissue and its 2D monolayer are generated using the protocol previously described ([…]-Thiele, […].; Wells, J. M., Optimized procedures for generating an enhanced, near physiological 2D culture system from porcine intestinal organoids. […] After 7 days of culture, organoids are dissociated into single cells by TrypLE (GIbco), and the single cell suspension is added in 24-well transparent transwell inserts (0.3 cm^2, Falcon, BD). […] Samples from the basal compartment are collected at 20 min in the presence of C10. Peptide concentrations in the apical and basal compartments are measured by LC/MS, and the apparent permeability coefficient (Papp) is calculated as previously described (Twarog, C.; Liu, K.; O'Brien, P. J.; Dawson, […] head-to-head Caco-2 assay comparison of the mechanisms of action of the intestinal permeation enhancers: SNAC and sodium caprate (C10).

human GcgR = human GcgR (Homo sapiens, UniProt P47871); test: Functional cAMP activity in the presence of 1% HSA; type: cell-based; conditions: read-out: cAMP Rel EC50, hGcgR
human GcgR, sequence (P47871 26-477): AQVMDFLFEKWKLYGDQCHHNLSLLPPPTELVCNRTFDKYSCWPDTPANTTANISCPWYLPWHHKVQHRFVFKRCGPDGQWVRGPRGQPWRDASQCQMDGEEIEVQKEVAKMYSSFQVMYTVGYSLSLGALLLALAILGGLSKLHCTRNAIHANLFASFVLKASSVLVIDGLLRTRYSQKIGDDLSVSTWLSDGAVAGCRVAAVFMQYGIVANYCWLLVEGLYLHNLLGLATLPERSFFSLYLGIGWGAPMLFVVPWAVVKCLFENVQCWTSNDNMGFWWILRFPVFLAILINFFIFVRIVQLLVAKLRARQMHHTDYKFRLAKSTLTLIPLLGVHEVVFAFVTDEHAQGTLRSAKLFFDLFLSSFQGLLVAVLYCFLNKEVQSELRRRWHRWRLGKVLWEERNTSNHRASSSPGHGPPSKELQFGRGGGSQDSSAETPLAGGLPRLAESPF

human GLP1-R = human GLP1-R (Homo sapiens, UniProt P43220); test: GLP1-R internalization assay in HEK293 cells; type: cell-based; conditions: for EC50: HEK293 cells expressing SNAP-GLP-1R, read-out: GLP1R Internalization EC50; for Internalization % TOP: normalized to maximum concentration of GLP-1 (100%)
human GLP1-R, sequence (P43220 24-463): as the sequence (P43220 24-463) above

hGcgR = hGcgR (Homo sapiens, UniProt P47871); test: Functional cAMP activation in the presence of 0.1% casein (no HSA); type: cell-based; conditions: in the presence of 0.1% casein (no HSA); geometric mean; read-out: Relative cAMP EC50, hGcgR;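 note: intracellular cAMP rise after 30 min at 37 °C, read by HTRF against a cAMP standard curve, scaled from buffer only (0%) to maximal control ligand response (100%)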
hGcgR, sequence (P47871 26-477): as the sequence (P47871 26-477) above
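Throughout, for Relative cAMP EC50, hGLP-1R: intracellular cAMP rise after 30 min at 37 °C read by HTRF, normalized between buffer only (0%) and maximal control ligand (100%), four-parameter variable-slope fit.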

Molecule | EC50 (hGLP-1R [1]) [nM] | EC50 (hGIPR [2]) [nM] | EC50 (hGLP-1R [3]) [nM] | EC50 (hGIPR [4]) [nM] | Relative Papp (Compared to internal standard) [5] | EC50 (human GcgR) [nM] | EC50 (human GLP1-R) [nM] | Internalization % TOP (human GLP1-R) [%] | EC50 (hGcgR) [nM]
H-Y[Aib]QGTFTSD[4Pal]SR[αMeL]LDKK([AEEA-γGlu-C18 diacid])AQ[αMe4Pal]AFIEYLIE[Aib]GESSGAPPPSGS-NH2 [Example 224] | 333 | 0.114 | 1.89 | 21.5 | 0.35 | 452 | 32.2 | 61.9 | 1.91
CC[C@H](C)[C@H](NC(=O)[C@H](Cc1ccccc1)NC(=O)[C@H](C)NC(=O)C(C)(C)NC(=O)[C@H](CCC(N)=O)NC(=O)[C@H](C)NC(=O)[C@H](CCCCNC(=O)COCCOCCNC(=O)CC[C@H](NC(=O)CCCCCCCCCCCCCCCCC(=O)O)C(=O)O)NC(=O)[C@H](CCCCN)NC(=O)[C@H](CC(=O)O)NC(=O)[C@H](CC(C)C)NC(=O)[C@](C)(CC(C)C)NC(=O)[C@H](CCCN)NC(=O)[C@H](CO)NC(=O)[C@H](Cc1ccccc1)NC(=O)[C@H](CC(=O)O)NC(=O)[C@H](CO)NC(=O)[C@@H](NC(=O)[C@H](Cc1ccccc1)NC(=O)[C@@H](NC(=O)CNC(=O)[C@H](CCC(N)=O)NC(=O)C(C)(C)NC(=O)[C@@H](N)Cc1ccc(O)cc1)[C@@H](C)O)[C@@H](C)O)C(=O)N[C@@H](CCC(=O)O)C(=O)N[C@@H](Cc1ccc(O)cc1)C(=O)N[C@@H](CC(C)C)C(=O)N[C@@H](CC(C)C)C(=O)N[C@@H](CCC(=O)O)C(=O)N[C@H](C)C(=O)NCC(=O)N[C@@H](CCCCNC(C)=O)C(=O)N[C@@H](CO)C(=O)N[C@@H](CO)C(=O)NCC(=O)N[C@@H](C)C(=O)N1CCC[C@H]1C(=O)N1CCC[C@H]1C(=O)N1CCC[C@H]1C(=O)N[C@@H](CO)C(=O)NCC(=O)N[C@@H](CCC(=O)O)C(N)=O [Example 208] | 336 | 0.159 | 3.72 |  | 0.29 | 578 | 55.7 | 49.6 | 2.69
H-Y[Aib]QGTFTSDFS[Orn][αMeL]LDKK([AEEA-AEEA-γGlu-C18 diacid])AQ[Aib]AFIEYLLE[Aib]GPSSGAPPPSGT-NH2 [Example 165] | 808 | 0.0956 | 6.52 | 18.6 | 0.09 | 1250 | 57.5 | 44.5 | 4.47
H-Y[Aib]QGTFTSDFS[Orn][αMeL]LDKK([AEEA-AEEA-γGlu-C18 diacid])AQ[Aib]AFIEYLLE[Aib]GHSSGAPPPSGE-NH2 [Example 186] | 690 | 0.107 | 5.26 | 18 | 0.10 | 1280 | 124 | 41.1 | 4.67
H-Y[Aib]QGTFTSD[4Pal]SR[αMeL]LDKK([AEEA-γGlu-C18 diacid])AQ[Aib]AFIEYLIE[Aib]GESSGAPPPSGS-NH2 [Example 187] | 178 | 0.111 | 1.11 | 15.6 | 0.48 | 2970 | 17.2 | 57 | 14.8
H-Y[Aib]QGTFTSD[4Pal]S[Orn][αMeL]LDKK([AEEA-γGlu-C18 diacid])AQ[Aib]AFIEYLLAGGPSSGEPPPSGS-NH2 [Example 154] | 569 | 0.227 | 4.94 | 29.7 | 0.12 | 1040 | 47.7 | 65.9 | 8.72
H-Y[Aib]QGTFTSDFS[Orn][αMeL]LDKK([AEEA-γGlu-C18 diacid])AQ[Aib]AFIEYLLE[dA]GPSSGAPPPSG[4Pal]-NH2 [Example 211] | 234 | 0.116 | 1.23 | 20.6 | 0.06 | 370 | 57.4 | 26.9 | 2.05
CC[C@H](C)[C@H](NC(=O)[C@H](Cc1ccccc1)NC(=O)[C@H](C)NC(=O)C(C)(C)NC(=O)[C@H](CCC(N)=O)NC(=O)[C@H](C)NC(=O)[C@H](CCCCNC(=O)CC[C@H](NC(=O)CC[C@H](NC(=O)CCCCCCCCCCCCCCCCC(=O)O)C(=O)O)C(=O)O)NC(=O)[C@H](CCCCN)NC(=O)[C@H](CC(=O)O)NC(=O)[C@H](CC(C)C)NC(=O)[C@](C)(CC(C)C)NC(=O)[C@H](CCCN)NC(=O)[C@H](CO)NC(=O)[C@H](Cc1ccccc1)NC(=O)[C@H](CC(=O)O)NC(=O)[C@H](CO)NC(=O)[C@@H](NC(=O)[C@H](Cc1ccccc1)NC(=O)[C@@H](NC(=O)CNC(=O)[C@H](CCC(N)=O)NC(=O)C(C)(C)NC(=O)[C@@H](N)Cc1ccc(O)cc1)[C@@H](C)O)[C@@H](C)O)C(=O)N[C@@H](CCC(=O)O)C(=O)N[C@@H](Cc1ccc(O)cc1)C(=O)N[C@@H](CC(C)C)C(=O)N[C@@H](CC(C)C)C(=O)N[C@@H](CCC(=O)O)C(=O)N[C@H](C)C(=O)NCC(=O)N1CCC[C@H]1C(=O)N[C@@H](CO)C(=O)N[C@@H](CO)C(=O)NCC(=O)N[C@@H](C)C(=O)N1CCC[C@H]1C(=O)N1CCC[C@H]1C(=O)N1CCC[C@H]1C(=O)N[C@@H](CO)C(=O)NCC(=O)N[C@H](C(N)=O)[C@@H](C)O [Example 204] | 306 | 0.181 | 2.34 | 16.7 | 0.16 | 572 | 66.4 | 45.5 | 6.92
H-Y[Aib]QGTFTSD[4Pal]SR[αMeL]LDKK([AEEA-γGlu-C18 diacid])AQ[αMe4Pal]AFIEYLIE[Aib]GESSGAPPPSGE-NH2 [Example 225] | 438 | 0.213 | 2.44 | 40.2 | 0.48 | 561 | 26 | 56.7 | 2.36
H-Y[Aib]QGTFTSDFS[Orn][αMeL]LDKK([AEEA-γGlu-C18 diacid])AQ[Aib]AFIEYLLE[dA]GPSSGAPPPSGS-NH2 [Example 209] | 276 | 0.129 | 1.78 | 23.3 | 0.08 | 433 | 83.1 | 41.2 | 3.08
CC[C@H](C)[C@H](NC(=O)[C@H](Cc1ccccc1)NC(=O)[C@H](C)NC(=O)C(C)(C)NC(=O)[C@H](CCC(N)=O)NC(=O)[C@H](C)NC(=O)[C@H](CCCCNC(=O)COCCOCCNC(=O)CC[C@H](NC(=O)CCCCCCCCCCCCCCCCC(=O)O)C(=O)O)NC(=O)[C@H](CCCCN)NC(=O)[C@H](CC(=O)O)NC(=O)[C@H](CC(C)C)NC(=O)[C@](C)(CC(C)C)NC(=O)[C@H](CCCN)NC(=O)[C@H](CO)NC(=O)[C@H](Cc1ccccc1)NC(=O)[C@H](CC(=O)O)NC(=O)[C@H](CO)NC(=O)[C@@H](NC(=O)[C@H](Cc1ccccc1)NC(=O)[C@@H](NC(=O)CNC(=O)[C@H](CCC(N)=O)NC(=O)C(C)(C)NC(=O)[C@@H](N)Cc1ccc(O)cc1)[C@@H](C)O)[C@@H](C)O)C(=O)N[C@@H](CCC(=O)O)C(=O)N[C@@H](Cc1c[nH]c2ccccc12)C(=O)N[C@@H](CC(C)C)C(=O)N[C@@H](CC(C)C)C(=O)N[C@@H](CCC(=O)O)C(=O)NCC(=O)NCC(=O)N1CCC[C@H]1C(=O)N[C@@H](CO)C(=O)N[C@@H](CO)C(=O)NCC(=O)N[C@@H](C)C(=O)N1CCC[C@H]1C(=O)N1CCC[C@H]1C(=O)N1CCC[C@H]1C(=O)N[C@@H](Cc1c[nH]cn1)C(=O)NCC(=O)N[C@@H](CO)C(N)=O [Example 249] | 256 | 0.173 |  | 22.5 | 0.04 | 604 | 86.2 | 34.8 | 5.55
